{"source": "patent US20170333390A1", "about": "“PHYTOCHEMICAL COMPOSITIONS INCLUDING SESAMIN FOR ANTI-INFLAMMATORY, ANTI-CYTOKINE STORM, AND OTHER USES” (CHIANG MAI UNIVERSITY, priority 2009, published 2017)", "key": {"[1]": {"system": "IL-2 gene expression in LPS induced peripheral blood mononuclear cells (PBMCs)", "test": "IL-2 gene expression relative to GAPDH in LPS induced PBMCs (RT-PCR)", "type": "cell-based", "details": "1.0 ug/ml sesamin (culture 4), LPS 20 ng/ml, 24 hours", "procedure": "Experiments were conducted to evaluate the effect of particular phytochemical compositions provided by the present disclosure on IL-2 gene expression in specified cells found within a body of a living organism. Cells used for the experiment described in this example are LPS induced peripheral blood mononuclear cells (PBMCs). It is understood by a person having ordinary skill in the art that the PBMCs may be substituted for other immune cells found within the body. It is also understood by a person having ordinary skill in the art that other inducing substances or chemicals besides LPS, for example viral antigens, may also be used for inducing the PBMCs.\nPreparation of PBMCs is done by standard isolation techniques or methods known to a person of ordinary skill in the art as with the experiments of example two. In addition, LPS can be obtained from a commercial source, for example Sigma-Aldrich Co. The PBMCs are cultured in 10% fetal calf serum in RPMI1640 medium. Five cultures of PBMCs, i.e. culture 1 to culture 5, were prepared. […]\nThe amount or level of IL-2 gene expression in the PBMCs was measured or determined using methods or techniques known to a person having ordinary skill in the relevant art. In example three, Real-Time PCR (RT-PCR) was used for quantifying the amount of IL-2 gene expression in the PBMCs."}, "[2]": {"system": "cartilage tissue cultures exposed to IL-1 (ECM degradation, HA release)", "test": "HA release from IL-1 exposed cartilage tissue cultures (ELISA)", "type": "cell-based", "details": "relative to control culture", "procedure": "Experiments were conducted to evaluate the anti-inflammatory effects of combinations of particular phytochemical compositions provided by the present disclosure with known substances, compositions, or drugs that are associated with an anti-inflammatory effect and/or an anti-degenerative or tissue integrity preservation effect in connective tissue. In the context of the present disclosure, the term “connective tissue” encompasses connective tissue proper (e.g., dense or fibrous connective tissue), as well as specialized connective tissue such as cartilage or bone. More specifically, experiments were conducted to evaluate the anti-inflammatory, anti-degenerative, and/or structural preservation effects of a combination of particular phytochemical compositions provided by the present disclosure with glucosamine sulfate. In addition, the experiments compared the anti-inflammatory/anti-degenerative effects of the combination of particular sesamin or sesamin-based phytochemical compositions provided by the present disclosure plus glucosamine sulfate, versus the anti-inflammatory/anti-degenerative effects of glucosamine sulfate alone.\nHyaluronic acid (HA) is an important component of the extracellular matrix (ECM), as well as a major component of synovial fluid. HA is present in articular cartilage, and contributes to cartilage resilience. It is known that IL-1 stimulates the synthesis and activity of matrix metalloproteinases and other enzymes that are associated with cartilage degradation as well as rheumatoid arthritis and osteoarthritis. A set of experimental cartilage tissue cultures were prepared using cartilage tissue samples containing HA within their ECMs. As further detailed below, the experimental cartilage tissue cultures selectively incorporated glucosamine sulfate alone; sesamin alone; or a combination of glucosamine sulfate and sesamin. Additionally, a control cartilage tissue culture remained unexposed to either of sesamin or glucosamine sulfate.\nECM degradation was induced in the experimental and control cartilage tissue cultures by exposing the cultures to IL-1. A measure or estimate of a cartilage tissue anti-degenerative effect was defined in accordance with an amount of HA that an experimental cartilage tissue culture released into the tissue culture medium relative to a reference or baseline amount of HA that was released into the tissue culture medium by the control cartilage tissue culture. More particularly, a percentage reduction in the amount of HA released into the tissue culture medium by a given experimental cartilage tissue culture relative to the amount of HA released into the tissue culture medium by the control cartilage tissue culture, indicated below as “Percentage (%) HA Reduction”, conveys or indicates the magnitude of an anti-degenerative or structural preservation effect provided by the experimental cartilage tissue culture under consideration. A corresponding measure or estimate of percentage (%) HA retention by cartilage tissue can also be defined based upon the experimental results. The amount or level of HA present in a given tissue culture medium was detected using ELISA, in a manner that can be understood by one of ordinary skill in the art."}}, "data": [{"smiles": "c1cc2c(cc1[C@H]1OC[C@H]3[C@@H]1CO[C@@H]3c1ccc3c(c1)OCO3)OCO2", "note": "[sesamin]", "values": [{"measurement": "increase in IL-2 gene expression relative GAPDH", "setting": "[1]", "value": "approximately 220%"}, {"measurement": "Percentage (%) HA Reduction", "setting": "[2]; sesamin 0.25 uM (88.6 ug/ml)", "value": "approximately 0%"}, {"measurement": "Percentage (%) HA Reduction", "setting": "[2]; sesamin 0.25 uM (88.6 ug/ml), listed as Sesamin", "value": 0, "unit": "%"}, {"measurement": "Percentage (%) HA Reduction", "setting": "[2]; sesamin 0.50 uM (177.2 ug/ml)", "value": "approximately 4%"}, {"measurement": "Percentage (%) HA Reduction", "setting": "[2]; sesamin 0.50 uM (177.2 ug/ml), listed as Sesamin", "value": 4, "unit": "%"}, {"measurement": "Percentage (%) HA Reduction", "setting": "[2]; sesamin 1.00 uM", "value": "approximately 43%"}, {"measurement": "Percentage (%) HA Reduction", "setting": "[2]; sesamin 1.00 uM, listed as Sesamin", "value": 56, "unit": "%"}]}]}
